The source of these data is patent publication US20250257060A1, “OXADIAZOLE COMPOUND, PHARMACEUTICAL COMPOSITION COMPRISING SAME, AND USE THEREOF” (SUZHOU GENHOUSE BIO CO., LTD., priority 2022, published 2025).

A word on the EC50: it is the concentration at which the effect is half-maximal. A higher EC50 goes with lower potency in that assay.

Data set [1] deals with acetylation level of α-tubulin in HCC827 cells. Nature of the data set: Assay on acetylation level of α-tubulin, HCC827 cells. It is filed as cell-based. As to conditions: Homo sapiens, 6 h. On the procedure:
A375/HCT116/HCC827 cells at a logarithmic growth phase were taken, digested with a […] (trypsin), centrifuged, counted, and plated in a 96-well plate at an appropriate cell density (30,000 cells/well) at 100 µL/well, and an appropriate amount of PBS was added around the plate for water sealing. The next day, the cells were treated with the compounds at different concentrations (starting at 100 μM, 5-fold dilution, 9 concentration gradients). After 6 h, the medium was pipetted out and the cells were washed twice with 100 μL of PBST. The cells were then immobilized in 4% paraformaldehyde, and the plate was incubated at room temperature for 20 min. The stationary liquid was discarded and the cells were washed with PBST. 150 μL of special blocking buffer (containing 1% Triton-100) was added to each well for blocking at room temperature for 2 h, and the plate was washed with PBS to remove excess blocking buffer. α-tubulin (DM1A) mouse mAb and acetyl-α-tubulin (Lys40) (D20G3) XP rabbit mAb were diluted at a 1:2000 ratio with a blocking buffer containing 0.033% Triton-100. The dilutions were added to the 96-well plate and the plate was incubated overnight at 4° C. Meanwhile, a blank control group was set. The next day, the plate was washed twice with PBST. […] Fluorescence signals at 700 nm and 800 nm were detected with a Li-COR Odyssey two-color near-infrared laser imager.

The test system of data set [2] is Salmonella typhimurium auxotroph strains TA98 and TA100. The experiment in a line: Ames assay (mutagenicity test). It is filed as cell-based. As to conditions: TA98 and TA100, with or without S9. On the procedure:
The test strains adopted in the mutagenicity test were Salmonella typhimurium auxotroph strains TA98 and TA100. The test was performed using a 6-well plate in the presence or absence of the S9 metabolic activation system, with both a solvent control group (DMSO) and a positive control group set, with 2 replicate wells per treatment group. Compounds were set at 5 concentrations ranging from 62.5 μg/well to 1000.0 μg/well (equivalent to 312.5 μg/dish to 5000.0 μg/dish in the standard Ames assay). The plate was incubated at 37° C. for 48-72 h, and then bacterial toxicity was measured in each well and the number of mutant colonies in each well was counted. When the number of revertant colonies of the test compound groups is more than twice the number of spontaneous revertant colonies of the solvent control group in a reproducible and dose-dependent manner, the test substance is considered to have positive mutagenicity for the test strain.
In this test, dimethyl sulfoxide (DMSO) was used to dissolve the test substance and served as a negative (solvent) control. In the S9-free group (−S9), 2-nitrofluorene and sodium azide were used as positive controls for TA98 and TA100, respectively; in the S9 group (+S9), 2-aminofluorene was used as a positive control for TA98 and TA100.

`CC(F)(F)C(=O)N[C@@H]1CCCC[C@H]1N1Cc2ccc(-c3nnc(C(F)F)o3)cc2S1(=O)=O` [Compound 1] returned an EC50 in data set [1] of 0.338 µM.
For the compound `O=C(N[C@@H]1CCCC[C@H]1N1Cc2ccc(-c3nnc(C(F)F)o3)cc2S1(=O)=O)C(F)F` [Compound 2], a half-maximal response in data set [1] (EC50) required 0.288 ± 0.0493 µM.
Turning to `O=C(N[C@H]1[C@H](N2Cc3ccc(-c4nnc(C(F)F)o4)cc3S2(=O)=O)CCCC1(F)F)C(F)F` [Compound 61], in data set [2], the “Pollutant mutagenicity test results” value is reported as “Negative”.
